From patent US11116778B2, “Prodrugs of ALOX-15 inhibitors and methods of using the same” (EMPIRICO INC., priority 2019, dated 2021)
Like-named read-outs stand apart in the source and are kept apart here.

Assays:
[1] = molecular target: T1, human lipoxygenase (ALOX15 Active Human Recombinant Protein) (Homo sapiens, UniProt P16050); assay: Recombinant human ALOX15 assay (DPPP fluorescence)
T1 sequence (P16050 1-662): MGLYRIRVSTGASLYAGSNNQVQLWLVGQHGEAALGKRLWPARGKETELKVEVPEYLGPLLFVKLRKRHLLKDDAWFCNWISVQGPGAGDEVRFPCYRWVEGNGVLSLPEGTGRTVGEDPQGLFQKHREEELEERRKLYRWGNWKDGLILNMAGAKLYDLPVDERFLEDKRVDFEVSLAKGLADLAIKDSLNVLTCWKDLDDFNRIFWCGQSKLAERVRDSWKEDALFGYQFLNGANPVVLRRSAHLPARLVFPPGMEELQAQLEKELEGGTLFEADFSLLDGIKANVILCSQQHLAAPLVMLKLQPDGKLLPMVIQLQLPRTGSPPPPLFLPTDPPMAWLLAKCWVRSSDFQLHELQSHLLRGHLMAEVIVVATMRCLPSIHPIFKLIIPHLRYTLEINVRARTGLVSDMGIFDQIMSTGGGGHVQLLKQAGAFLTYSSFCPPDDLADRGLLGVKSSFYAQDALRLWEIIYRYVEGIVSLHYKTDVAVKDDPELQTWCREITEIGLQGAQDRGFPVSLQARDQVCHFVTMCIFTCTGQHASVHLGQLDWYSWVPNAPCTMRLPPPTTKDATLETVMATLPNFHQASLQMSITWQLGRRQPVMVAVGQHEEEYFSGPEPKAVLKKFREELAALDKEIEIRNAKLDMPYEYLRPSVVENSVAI
Protocol: Within a minute of phosphatase addition, a white precipitate appeared.
This mixture was incubated for 5 min before the addition of 1.5 μL 0.2 mM arachidonic acid.

[2] = Solubility assessment in water; type: physicochemical; conditions: for solubility: thermodynamic from solid
Protocol: Water was added slowly to 4.7 mg of compound 5 until 4.7 ml of water was added at which point the phosphate fully dissolved. The pH of the solution was estimated using litmus paper and estimated to be <3. Without a counterion, the molecular weight of the phosphate is 418 m. Therefore, at 1 mg/ml, the concentration is 2.4 mM.
For comparison, compound 3 is soluble to 0.4 μg/ml (Han et al FASEB J. 2017 31(2):491-504), which at a molecular weight of 308 is 1.3 μM.
Compound 5 was suspended in water (at weight to give a final concentration of 10 mM) and then 2 eq NaHCO3 was added.

[3] = molecular target: T2, ALOX15 in human nasal epithelial primary cells (HNEpC) (Homo sapiens, UniProt P16050); assay: ALOX15 metabolite levels (15-HETE, 13-HODE) in human nasal epithelial primary cells; type: cell-based; conditions: 5 μM or 1 μM
T2 construct: host or cells: human nasal epithelial primary cells (HNEpC), treated with IL-13
T2 sequence (P16050 1-662): T1 sequence (P16050 1-662)
Protocol: Human nasal epithelial primary cells (HNEpC) (PromoCell GmbH, Heidelberg, Germany) were cultured according to the manufacturer in provided Primary Cell media in 24 well plates at a density of 25,000 cells per well. Cells were treated with 5 μM or 1 μM of compound 5 or vehicle only (water) in media containing 20 ng/mL IL-13 for 24 hours in a 37° C. cell culture incubator. The following day, media was replaced and fresh media containing 20 ng/mL IL-13 and compound 5 or vehicle was added to each well, then incubated again for 24 hours in a 37° C. cell culture incubator. The process was repeated once more for a 24-hour period.
To determine levels of arachidonic acid and linoleic acid metabolites after compound treatment, cell media was replaced with fresh Primary Cell media without IL-13. ALOX15 substrate (arachidonic acid or linoleic acid) was added to each well at a concentration of 1.5 μM and cells further incubated 37° C. for 1 hour. Media was collected from each well and quenched with an equal volume of LC/MS extraction buffer (methanol, 60 mM ascorbic acid, 0.1% acetic acid).
15-HETE and 13-HODE were quantified using LC-MS/MS (QTrap5500, Applied Biosystems). Q1/Q3 masses: 319.10/219.10 for 15-HETE and 295.10/195.10 Da for 13-HODE. Deuterated 15-HETE (Cayman Chemical) was used as the internal standard. The Q1/Q3 masses are 327.10/184.10 Da for the 15-HETE deuterated standard. […]

O=C(Nc1ccc(F)cc1Cl)c1nn(COP(=O)(O)O)c(Cl)c1Cl [compound 5, (4,5-dichloro-3-((2-chloro-4-fluorophenyl)carbamoyl)-1H-pyrazol-1-yl)methyl dihydrogen phosphate]
IC50 [1]: 32 nM
inhibition of ALOX15 ([1]; in the absence of treatment with phosphatase): No inhibition was observed
pH of the solution ([2]; 1 mg/ml in water, estimated using litmus paper): < 3
increase in water solubility above compound 3 ([2]; disodium salt): 7,200 fold
further increase in solubility as a sodium salt ([2]; disodium salt versus free phosphoric acid): 4 fold
increase in water solubility over compound 3 ([2]; free phosphoric acid): ~1800 fold
solubility ([2]; free phosphoric acid, 4.7 mg fully dissolved in 4.7 ml water, read-out: solubility in water): 1000 µg/mL
solubility ([2]; water with 2 eq NaHCO3, aqueous buffer, disodium salt, 2 eq NaHCO3 added, read-out: concentration in water giving a clear solution): ≥ 10000 µM
solubility ([2]; water, free phosphoric acid, at 1 mg/ml, molecular weight 418, read-out: solubility in water, concentration): 2400 µM
15-HETE produced versus vehicle alone (FIG. 4) ([3]; 3 x 24 hours with 20 ng/mL IL-13, then 1.5 μM arachidonic acid 1 hour): less
13-HODE produced versus vehicle alone (FIG. 5) ([3]; 3 x 24 hours with 20 ng/mL IL-13, then 1.5 μM linoleic acid 1 hour): less
